Test results reported in patent US20200360317A1, “CARBOXYLIC ACIDS FOR TREATING/PREVENTING A SKIN DISEASE” (Proponent Biotech GmbH, priority 2016, published 2020).

Columns and labels:
[1] = system: allergic hypersensitivity induced by Nickel allergen (skin); test: Nickel-induced allergic contact dermatitis, topical treatment, blinded clinical score of skin lesion; format: in vivo, human; settings: 4×140 μl of 50 mM Propionate in Locke-Ringer solution over 8 hours, 60 hours after last Nickel contact; vs Locke-Ringer control; n=2
Procedure: The study aimed at determining whether treatment with propionate promotes skin health following allergic hypersensitivity (particularly allergic contact dermatitis).
Allergic hypersensitivity was induced through contact sensitization with Nickel allergen over a 12 hour time period.
The sum of the four scores given blinded to each subject (n=2) yielded in the clinical score. The results can be seen in FIGS. 1 and 2.

[2] = system: wound infection of injured skin; test: Treatment of infected wound of injured skin; format: in vivo; settings: skin treated with propionate vs skin treated with water
Description: The study aimed at determining whether treatment with propionate promotes skin health of wound infection of injured skin.

[3] = in Locke-Ringer Solution
Description: • Identification: Sodium propionate (Sigma-Aldrich, Cat. P5436-100G) • Test Item Name for Report: Sodium propionate • Description: Hygroscopic white powder • Batch Number: Lot.

SMILES: CCC(=O)[O-].[Na+] [Sodium propionate]
- Clinical score of skin lesion (sum of four scores) [1]: clinical score was significantly reduced
- Appearance of skin lesions (FIG. 4) [2]: lesions are significantly reduced
- Stability of Test Item in Solution [3]: ≥ 6 months
